Test results published in patent publication US20220112309A1, “BISPECIFIC ANTIBODY AGAINST CD3 AND CD20 IN COMBINATION THERAPY FOR TREATING DIFFUSE LARGE B-CELL LYMPHOMA” (GENMAB A/S, priority 2020, published 2022).

How the values were obtained:
[1] = system: Raji; format: cell-based; details: 48 hours
Procedure: (§1) Briefly, human Burkitt lymphoma (Raji) and DLBCL (SU-DHL-4) cell lines were used as target cells. Cells were cultured in culture medium (RPMI 1640 with HEPES and L-Glutamine supplemented with 10% heat-inactivated donor bovine serum with iron, and 1% [v/v] penicillin/streptomycin) to which 2 mM L-glutamine and 1 mM sodium pyruvate were added, at 37° C., 5% CO2. T cells, isolated from human healthy donor buffy coats (Sanquin) by negative selection using the RosetteSep™ Human T Cell Enrichment Cocktail (Stemcell Technologies), followed by density centrifugation over a Ficoll gradient, both according to the manufacturer's instructions, were used as effector cells. Isolated cells were washed twice in phosphate buffered saline (PBS) and counted using acridine orange/propidium iodide (AO/PI) viability staining solution (Nexcelom Bioscience) on a Cellometer® Auto 2000 Cell Viability Counter. […] B-cell viability and T-cell activation were measured by flow cytometry (count of CD22-positive cells; expression of the T-cell activation markers CD69, CD25, programmed cell death protein 1 (PD-1), and CD107 [lysosomal associated membrane protein 1; LAMP-1] on CD4+ and CD8+ T cells). Absolute cell numbers were determined by adding Accucheck Counting beads (100 μL/well) (Thermofisher) and calculated as follows:
(§2) Correction factor=([bead count1+bead count2]/average bead countplate)
(§3) Absolute cell number=[cell countsample/correction factor] • The percentage cytotoxicity was calculated as follows:
(§4) % cytotoxicity=100−([absolute cell numbersample/absolute cell numberno antibody]×100%)

[2] = system: SU-DHL-4; format: cell-based; details: SU-DHL-4 cells, 48 hours
Procedure: as §1, §2, §3, §4

[3] = system: R/R B-NHL; experiment: ongoing clinical trial of epcoritamab monotherapy (NCT03625037); format: in vivo
Description: Epcoritamab as monotherapy is currently in a clinical trial for the treatment of relapsed/refractory (R/R) B-NHL (ClinicalTrials.gov Identifier: NCT03625037).

[4] = system: SU-DHL-4; experiment: in vitro T-cell activation assay, T cells incubated with SU-DHL-4 cells; format: cell-based, human; details: SU-DHL-4 target cells, 48 hours
Procedure: as §1, with “follows: […]” for “follows:”

[5] = system: Raji; experiment: in vitro T-cell activation assay, T cells incubated with Raji cells; format: cell-based, human; details: Raji target cells, 48 hours
Procedure: as §1, with “follows: […]” for “follows:”

[6] = gemcitabine and/or oxaliplatin at EC30 concentrations, with or without epcoritamab
[7] = epcoritamab alone 0.01 pg/mL-100 ng/mL
[8] = epcoritamab 0.01 pg/mL-100 ng/mL, flow cytometry
[9] = gemcitabine 1 nM, oxaliplatin 0.3 μM

## Nc1ccn(C2OC(CO)C(O)C2(F)F)c(=O)n1 (stereo not shown) [gemcitabine, 4-amino-1-[3,3-difluoro-4-hydroxy-5-(hydroxymethyl)oxolan-2-yl]-1,2-dihydropyrimidin-2-one, reference compound]
[1]; [6]
  cytotoxicity of B cells: induced cytotoxicity of B cells
[2]; [6]
  cytotoxicity of B cells: induced cytotoxicity of B cells

## epcoritamab: IgG1 bispecific CD3xCD20 antibody; heavy and light chain pairs of SEQ ID NOs: 24 and 25, and 26 and 27; CAS 2134641-34-0
[3]; human, in vivo
  dose-limiting toxicities: no dose-limiting toxicities reported
[3]; monotherapy, R/R B-NHL patients, preliminary data
  tolerated dose: tolerated at doses up to at least 48 mg, including 60 mg
[1]; [7]
  T-cell-mediated cytotoxicity (decrease in the number of viable B cells): concentration-dependent T-cell-mediated cytotoxicity
[2]; [7]
  T-cell-mediated cytotoxicity (decrease in the number of viable B cells): concentration-dependent T-cell-mediated cytotoxicity
[4]; [8]
  T-cell activation (upregulation of CD69, CD25, PD-1, and LAMP-1 expression): concentration-dependent activation of both CD4+ (data not shown) and CD8+ T cells
[4]; [9]
  Epcoritamab-induced T-cell activation in the presence of gemcitabine, oxaliplatin, or the combination: not affected
[5]; [8]
  T-cell activation (upregulation of CD69, CD25, PD-1, and LAMP-1 expression): concentration-dependent activation of both CD4+ (data not shown) and CD8+ T cells
[5]; [9]
  Epcoritamab-induced T-cell activation in the presence of gemcitabine, oxaliplatin, or the combination: not affected
